Measurements from ChEMBL document CHEMBL3792365, “Dioxol and dihydrodioxin analogs of 2- and 3-phenylacetonitriles as potent anti-cancer agents with nanomolar activity against a variety of human cancer cells” (2016).

Experiments:
Type in all cases: functional
[1] = Growth inhibition of human NCI-ADR-RES cells at 10 uM after 48 hrs by sulforhodamine B assay; conditions: values are per cent of control
[2] = Growth inhibition of human HCT116 cells at 10 uM after 48 hrs by sulforhodamine B assay; conditions: HCT-116, 48 h, values are per cent of control
[3] = Growth inhibition of human UO31 cells at 10 uM after 48 hrs by sulforhodamine B assay; conditions: UO-31, 48 h, values are per cent of control
[4] = tested on: A498; assay: Growth inhibition of human A498 cells at 10 uM after 48 hrs by sulforhodamine B assay; conditions: A498, 48 h, values are per cent of control
[5] = tested on: NCI-H322M; assay: Growth inhibition of human NCI-H322M cells at 10 uM after 48 hrs by sulforhodamine B assay; conditions: values are per cent of control
[6] = tested on: SK-MEL-28; assay: Growth inhibition of human SK-MEL-28 cells at 10 uM after 48 hrs by sulforhodamine B assay; conditions: SK-MEL-28, 48 h, values are per cent of control
[7] = Growth inhibition of human SNB75 cells at 10 uM after 48 hrs by sulforhodamine B assay; conditions: SNB-75, 48 h, values are per cent of control
[8] = tested on: M14; assay: Growth inhibition of human M14 cells at 10 uM after 48 hrs by sulforhodamine B assay; conditions: M14, 48 h, values are per cent of control
[9] = Growth inhibition of human SF268 cells at 10 uM after 48 hrs by sulforhodamine B assay; conditions: SF-268, 48 h, values are per cent of control
[10] = tested on: KM12; assay: Growth inhibition of human KM12 cells at 10 uM after 48 hrs by sulforhodamine B assay; conditions: KM12, 48 h, values are per cent of control
[11] = Growth inhibition of human SNB19 cells at 10 uM after 48 hrs by sulforhodamine B assay; conditions: SNB-19, 48 h, values are per cent of control
[12] = Growth inhibition of human LOXIMVI cells at 10 uM after 48 hrs by sulforhodamine B assay; conditions: LOX IMVI, values are per cent of control
[13] = tested on: K562; assay: Growth inhibition of human K562 cells at 10 uM after 48 hrs by sulforhodamine B assay; conditions: K562, 48 h, values are per cent of control
[14] = Growth inhibition of human SF539 cells at 10 uM after 48 hrs by sulforhodamine B assay; conditions: SF-539, 48 h, values are per cent of control
[15] = Growth inhibition of human OVCAR8 cells at 10 uM after 48 hrs by sulforhodamine B assay; conditions: OVCAR-8, 48 h, values are per cent of control
[16] = tested on: A549; assay: Growth inhibition of human A549/ATCC cells at 10 uM after 48 hrs by sulforhodamine B assay; conditions: A549, 48 h, values are per cent of control
[17] = tested on: ACHN; assay: Growth inhibition of human ACHN cells at 10 uM after 48 hrs by sulforhodamine B assay; conditions: values are per cent of control
[18] = Growth inhibition of human Caki1 cells at 10 uM after 48 hrs by sulforhodamine B assay; conditions: CAKI-1, 48 h, values are per cent of control
[19] = tested on: SK-MEL-5; assay: Growth inhibition of human SK-MEL-5 cells at 10 uM after 48 hrs by sulforhodamine B assay; conditions: SK-MEL-5, 48 h, values are per cent of control
[20] = Growth inhibition of human RXF393 cells at 10 uM after 48 hrs by sulforhodamine B assay; conditions: RXF 393, 48 h, values are per cent of control
[21] = Growth inhibition of human OVCAR4 cells at 10 uM after 48 hrs by sulforhodamine B assay; conditions: OVCAR-4, 48 h, values are per cent of control
[22] = Growth inhibition of human IGROV1 cells at 10 uM after 48 hrs by sulforhodamine B assay; conditions: IGROV-1, 48 h, values are per cent of control
[23] = tested on: NCI-H460; assay: Growth inhibition of human NCI-H460 cells at 10 uM after 48 hrs by sulforhodamine B assay; conditions: NCI-H460, 48 h, values are per cent of control
[24] = Growth inhibition of human DU145 cells at 10 uM after 48 hrs by sulforhodamine B assay; conditions: DU-145, 48 h, values are per cent of control
[25] = tested on: MDA-MB-468; assay: Growth inhibition of human MDA-MB-468 cells at 10 uM after 48 hrs by sulforhodamine B assay; conditions: MDA-MB-468, 48 h, values are per cent of control
[26] = Growth inhibition of human OVCAR5 cells at 10 uM after 48 hrs by sulforhodamine B assay; conditions: OVCAR-5, 48 h, values are per cent of control
[27] = Growth inhibition of human BT549 cells at 10 uM after 48 hrs by sulforhodamine B assay; conditions: BT-549, 48 h, values are per cent of control
[28] = Growth inhibition of human HCC2998 cells at 10 uM after 48 hrs by sulforhodamine B assay; conditions: HCC 2998, 48 h, values are per cent of control
[29] = tested on: MDA-MB-231; assay: Growth inhibition of human MDA-MB-231 cells at 10 uM after 48 hrs by sulforhodamine B assay; conditions: MDA-MB-231, 48 h, values are per cent of control
[30] = Growth inhibition of human Hs 578T cells at 10 uM after 48 hrs by sulforhodamine B assay; conditions: values are per cent of control
[31] = tested on: T47D; assay: Growth inhibition of human T47D cells at 10 uM after 48 hrs by sulforhodamine B assay; conditions: values are per cent of control
[32] = Growth inhibition of human HOP62 cells at 10 uM after 48 hrs by sulforhodamine B assay; conditions: HOP-62, 48 h, values are per cent of control
[33] = Growth inhibition of human UACC62 cells at 10 uM after 48 hrs by sulforhodamine B assay; conditions: UACC-62, 48 h, values are per cent of control
[34] = tested on: U-251; assay: Growth inhibition of human U251 cells at 10 uM after 48 hrs by sulforhodamine B assay; conditions: U-251, 48 h, values are per cent of control
[35] = tested on: MDA-MB-435; assay: Growth inhibition of human MDA-MB-435 cells at 10 uM after 48 hrs by sulforhodamine B assay; conditions: MDA-MB-435, 48 h, values are per cent of control
[36] = Growth inhibition of human COLO205 cells at 10 uM after 48 hrs by sulforhodamine B assay; conditions: COLO 205, 48 h, values are per cent of control
[37] = tested on: NCI-H522; assay: Growth inhibition of human NCI-H522 cells at 10 uM after 48 hrs by sulforhodamine B assay; conditions: NCI-H522, 48 h, values are per cent of control
[38] = Growth inhibition of human HCT15 cells at 10 uM after 48 hrs by sulforhodamine B assay; conditions: HCT-15, 48 h, values are per cent of control
[39] = tested on: SN12C; assay: Growth inhibition of human SN12C cells at 10 uM after 48 hrs by sulforhodamine B assay; conditions: values are per cent of control
[40] = Growth inhibition of human SW620 cells at 10 uM after 48 hrs by sulforhodamine B assay; conditions: SW-620, 48 h, values are per cent of control

SMILES	growth, % of control at 10 µM [1]	growth, % of control at 10 µM [2]	growth, % of control at 10 µM [3]	growth, % of control at 10 µM [4]	growth, % of control at 10 µM [5]	growth, % of control at 10 µM [6]	growth, % of control at 10 µM [7]	growth, % of control at 10 µM [8]	growth, % of control at 10 µM [9]	growth, % of control at 10 µM [10]	growth, % of control at 10 µM [11]	growth, % of control at 10 µM [12]	growth, % of control at 10 µM [13]	growth, % of control at 10 µM [14]	growth, % of control at 10 µM [15]	growth, % of control at 10 µM [16]	growth, % of control at 10 µM [17]	growth, % of control at 10 µM [18]	growth, % of control at 10 µM [19]	growth, % of control at 10 µM [20]	further results
N#C/C(=C\c1cc2ccccc2s1)c1ccc2c(c1)OCO2	-1.9%	11.6%	34.9%	-7.5%	40.9%	60.6%	0.5%	20.6%	23.8%	6%	46.4%	19.9%	18.8%	-10.1%	14%	17.2%	38.8%	41.2%	16.6%	-2.6%	growth, % of control at 10 µM [21]: 60.2%; growth, % of control at 10 µM [22]: 34.3%; growth, % of control at 10 µM [23]: 9.7%; growth, % of control at 10 µM [24]: 5.1%; growth, % of control at 10 µM [25]: 14.1%; growth, % of control at 10 µM [26]: 50.4%; growth, % of control at 10 µM [27]: 56.4%; growth, % of control at 10 µM [28]: 6.4%; growth, % of control at 10 µM [29]: 24.3%; growth, % of control at 10 µM [30]: -5.4%; growth, % of control at 10 µM [31]: 70.4%; growth, % of control at 10 µM [32]: 58.5%; growth, % of control at 10 µM [33]: 24%; growth, % of control at 10 µM [34]: 18.4%; growth, % of control at 10 µM [35]: -37.2%; growth, % of control at 10 µM [36]: -33.9%; growth, % of control at 10 µM [37]: -20.5%; growth, % of control at 10 µM [38]: 20.4%; growth, % of control at 10 µM [39]: 25.3%; growth, % of control at 10 µM [40]: 21%
COc1ccc(/C=C(\C#N)c2ccc3c(c2)OCO3)c2ccccc12	10.5%	21.1%	42.1%	-8.4%	34.3%	43.6%	-3.1%	16.2%	34%	21%	36.1%	35.2%	19.1%	-42.9%	29%	31.7%	44.7%	30.8%	19.1%	-17.7%	growth, % of control at 10 µM [21]: 49.7%; growth, % of control at 10 µM [22]: 36.3%; growth, % of control at 10 µM [23]: 13.2%; growth, % of control at 10 µM [24]: 14.9%; growth, % of control at 10 µM [25]: -14.5%; growth, % of control at 10 µM [26]: 55.7%; growth, % of control at 10 µM [27]: 26.6%; growth, % of control at 10 µM [28]: 45.7%; growth, % of control at 10 µM [29]: 39.4%; growth, % of control at 10 µM [30]: -14.1%; growth, % of control at 10 µM [31]: 38.2%; growth, % of control at 10 µM [32]: 44.4%; growth, % of control at 10 µM [33]: 25.1%; growth, % of control at 10 µM [34]: 18.7%; growth, % of control at 10 µM [35]: -26.3%; growth, % of control at 10 µM [36]: 7.6%; growth, % of control at 10 µM [37]: 1.4%; growth, % of control at 10 µM [38]: 21.4%; growth, % of control at 10 µM [39]: 38.6%; growth, % of control at 10 µM [40]: 10.6%
